One data set deals with Jurkat T cells. Briefly: Antiproliferative screening at 10 μM, MTS assay. Particulars: for viability at 10 µM: Homo sapiens, read-out: Cell viability (%). It is filed as cell-based, human. How it is done: The Jurkat T cell line was chosen for its reliability as a model for chemotherapeutic studies, particularly in T-cell leukemia.[13]
An MTS (3-(4,5-dimethylthiazol-2-yl)-5-(3-carboxymethoxyphenyl)-2-(4-sulfophenyl)-2H-tetrazolium inner salt) assay[20] was used to assess the leukemic cell viability. […] A total of 2 × 10^3 cells per 100 μL cell culture media were seeded into each well of a 96-well plate and incubated for 24 h. Then, tested compounds or reference drugs [6-mercaptopurine (Merck Millipore, Germany), methotrexate (Merck Millipore, Germany) and cytarabine (Merck Millipore, Germany)] were added, followed by incubation for 72 h. […] The absorbance in each well was measured at 490 nm using a microplate reader (Tecan NanoQuant Infinite M200 Pro, Austria). The percentage of cell viability was estimated by comparing absorbance in wells with the treated and untreated (vehicle control) cells using the following formula: ODtreated/ODuntreated × 100%. All experiments were performed in triplicate and repeated in three independent experiments. The GI50 values were calculated using sigmoidal concentration-response curves generated by the GraphPad Prism 8 program.[21]
In general terms: Tetrazolium dyes change colour on reduction, which living cells bring about.

Where [1] appears, read: Jurkat T cells, 10 μM, 72 h after treatment, MTS, mean of three independent experiments.

Where two headings read alike, the source gives them in different places.

A word on the viability: it is a per cent measure of how many cells are alive, often set against a control. What is called melting point is the temperature of the solid-liquid transition.

Turning to `CN1CCN(c2nc(N)nc(-c3ccc(N(C)C)cc3)n2)CC1` [9{4,8}, 6-[4-(N,N-Dimethylamino)phenyl]-4-(4-methylpiperazino)-1,3,5-triazine-2-amine], the melting point lay within 244 to 245 °C. In addition, the viability at 10 µM in the data set on Jurkat T cells (setting [1]) is 99%. For `CN1CCN(c2nc(N)nc(-c3cccc([N+](=O)[O-])c3)n2)CC1` [9{4,10}, 4-(4-Methylpiperazino)-6-(3-nitrophenyl)-1,3,5-triazine-2-amine], in that order: 226 to 227 °C and 100%. Molecule `Nc1nc(-c2cccs2)nc(N2CCc3ccccc3C2)n1` [9{6,18}, 4-(3,4-Dihydroisoquinolin-2(1H)-yl)-6-(2-thienyl)-1,3,5-triazine-2-amine] had a melting point of 170 to 171 °C. The viability at 10 µM in the data set with Jurkat T cells (setting [1]) stood at 78%. Further, in the data set on Jurkat T cells (screening concentration 10 μM, 72 h), the “Antiproliferative activity against Jurkat T cells (in words)” value is “inactive against Jurkat T cells”. Regarding `Nc1nc(-c2cccc(F)c2)nc(N2CCCC2)n1` [9{1,2}, 6-(3-Fluorophenyl)-4-pyrrolidino-1,3,5-triazine-2-amine], the melting point lay in the range of 182 to 183 °C. Moreover, the viability at 10 µM in the data set with Jurkat T cells (setting [1]) is 100%. As for `Cc1cccc(-c2nc(N)nc(N3CCOCC3)n2)c1` [9{5,5}], in the data set on Jurkat T cells (setting [1]), the viability at 10 µM is 100%. Consider `Nc1nc(-c2ccc(OC(F)(F)F)cc2)nc(N2CCOCC2)n1` [9{5,12}], for which, in the data set with Jurkat T cells (setting [1]), the viability at 10 µM stood at 100%. The molecule `COc1ccc(-c2nc(N)nc(N3CCN(C)CC3)n2)cc1` [9{4,9}, 6-(4-Methoxyphenyl)-4-(4-methylpiperazino)-1,3,5-triazine-2-amine] had a melting point of 196 to 197 °C. For the same molecule, in the data set on Jurkat T cells (setting [1]), the viability at 10 µM is 100%.

For the molecule `Nc1nc(-c2ccc(OCc3ccccc3)cc2)nc(N2CCOCC2)n1` [9{5,15}], the viability at 10 µM in the data set on Jurkat T cells (setting [1]) was determined as 94%.

On to `Nc1nc(-c2ccc(Cl)cc2)nc(N2CCCCC2)n1` [9{2,4}, 6-(4-Chlorophenyl)-4-piperidino-1,3,5-triazine-2-amine], for which the melting point fell in the range of 177 to 178 °C. Also, the viability at 10 µM in the data set with Jurkat T cells (setting [1]) turned out to be 83%. As to `CN1CCN(c2nc(N)nc(-c3ccccc3)n2)CC1` [9{4,1}], the viability at 10 µM in the data set on Jurkat T cells (setting [1]) was determined as 100%. In turn, `CC1CCN(c2nc(N)nc(-c3ccc(F)cc3)n2)CC1` [9{3,3}, 6-(4-Fluorophenyl)-4-(4-methylpiperidino)-1,3,5-triazine-2-amine] showed a melting point above 300 °C. Besides, in the data set with Jurkat T cells (setting [1]), the viability at 10 µM stood at 86%. With `COc1ccc(-c2nc(N)nc(N3CCC(C)CC3)n2)cc1` [9{3,9}, 6-(4-Methoxyphenyl)-4-(4-methylpiperidino)-1,3,5-triazine-2-amine], the melting point was 172 to 173 °C. In the data set on Jurkat T cells (setting [1]), the viability at 10 µM was found to be 100%.

As for `Cc1ccc(-c2nc(N)nc(N3CCOCC3)n2)cc1` [9{5,6}], the viability at 10 µM with Jurkat T cells (setting [1]) was found to be 100%.

`Nc1nc(-c2ccc(C(F)(F)F)cc2)nc(N2CCc3ccccc32)n1` [9{7,11}, 6-[4-(Trifluoromethyl)phenyl]-4-(indolin-1-yl)-1,3,5-triazine-2-amine] displayed a melting point of 227 to 228 °C. The viability at 10 µM in the data set on Jurkat T cells (setting [1]) was 53%.

As to `CC1CCN(c2nc(N)nc(-c3ccc(N(C)C)cc3)n2)CC1` [9{3,8}, 6-[4-(N,N-Dimethylamino)phenyl]-4-(4-methylpiperidino)-1,3,5-triazine-2-amine], the melting point was in the range of 212 to 213 °C. The viability at 10 µM with Jurkat T cells (setting [1]) was found to be 84%. As for `CC1CCN(c2nc(N)nc(-c3cccc([N+](=O)[O-])c3)n2)CC1` [9{3,10}, 4-(4-Methylpiperidino)-6-(3-nitrophenyl)-1,3,5-triazine-2-amine], the melting point was in the range of 153 to 154 °C. Moreover, the viability at 10 µM with Jurkat T cells (setting [1]) was 84%. The molecule `COc1cc(-c2nc(N)nc(N3CCCC3)n2)cc(OC)c1OC` [9{1,17}, 6-(3,4,5-Trimethoxyphenyl)-4-pyrrolidino-1,3,5-triazine-2-amine] showed a melting point of 213 to 214 °C. For the same molecule, the viability at 10 µM with Jurkat T cells (setting [1]) was determined as 98%. `Nc1nc(-c2ccc(F)cc2)nc(N2CCCCC2)n1` [9{2,3}, 6-(4-Fluorophenyl)-4-piperidino-1,3,5-triazine-2-amine] showed a melting point of 156 to 157 °C. Moreover, the viability at 10 µM in the data set with Jurkat T cells (setting [1]) stood at 98%. In turn, `Cc1ccc(-c2nc(N)nc(N3CCC(C)CC3)n2)cc1` [9{3,6}, 6-(4-Methylphenyl)-4-(4-methylpiperidino)-1,3,5-triazine-2-amine] had a melting point above 300 °C. For the same molecule, the viability at 10 µM in the data set on Jurkat T cells (setting [1]) is 100%. With `Nc1nc(-c2ccc(OCc3ccccc3)cc2)nc(N2CCCC2)n1` [9{1,15}, 6-[4-(Benzyloxy)phenyl]-4-pyrrolidino-1,3,5-triazine-2-amine], the melting point lay in the range of 201 to 202 °C. In addition, the viability at 10 µM with Jurkat T cells (setting [1]) stood at 94%. `CN1CCN(c2nc(N)nc(-c3ccc(OCc4ccccc4)cc3)n2)CC1` [9{4,15}, 6-[4-(Benzyloxy)phenyl]-4-(4-methylpiperazino)-1,3,5-triazine-2-amine] gave a melting point of 191 to 192 °C. Moreover, in the data set on Jurkat T cells (setting [1]), the viability at 10 µM was found to be 74%.

For the molecule `CC(C)(C)c1ccc(-c2nc(N)nc(N3CCOCC3)n2)cc1` [9{5,7}], in the data set on Jurkat T cells (setting [1]), the viability at 10 µM turned out to be 60%. Still for that read-out and setting: with `Nc1nc(-c2cccc(OCc3ccccc3)c2)nc(N2CCOCC2)n1` [9{5,14}] the figure was 63%; with `COc1ccc(-c2nc(N)nc(N3CCOCC3)n2)cc1OC` [9{5,16}], 100%.

As for `Nc1nc(-c2ccc(Cl)cc2)nc(N2CCOCC2)n1` [9{5,4}], the viability at 10 µM in the data set on Jurkat T cells (setting [1]) came out at 100%.

As for `Nc1nc(-c2ccc(F)cc2)nc(N2CCOCC2)n1` [9{5,3}], the viability at 10 µM with Jurkat T cells (setting [1]) turned out to be 100%. Turning to `Nc1nc(-c2cccc(F)c2)nc(N2CCOCC2)n1` [9{5,2}], the viability at 10 µM in the data set on Jurkat T cells (setting [1]) came out at 100%. Same read-out and setting: under `Nc1nc(-c2cccs2)nc(N2CCOCC2)n1` [9{5,18}] stands 77%; under `CN(C)c1ccc(-c2nc(N)nc(N3CCOCC3)n2)cc1` [9{5,8}], 100%. Same read-out and setting: under `Nc1nc(-c2ccccc2)nc(N2CCCC2)n1` [9{1,1}] stands 100%. The same measure, in the same setting: with `Nc1nc(-c2cccc(Oc3ccccc3)c2)nc(N2CCOCC2)n1` [9{5,13}] the figure was 78%; with `COc1cc(-c2nc(N)nc(N3CCC(C)CC3)n2)cc(OC)c1OC` [9{3,17}, 6-(3,4,5-Trimethoxyphenyl)-4-(4-methylpiperidino)-1,3,5-triazine-2-amine], 95%. As to `CN1CCN(c2nc(N)nc(-c3ccc(Cl)cc3)n2)CC1` [9{4,4}, 6-(4-Chlorophenyl)-4-(4-methylpiperazino)-1,3,5-triazine-2-amine], the viability at 10 µM in the data set on Jurkat T cells (Jurkat, 72 h) is 100%. Take `COc1cc(-c2nc(N)nc(N3CCOCC3)n2)cc(OC)c1OC` [9{5,17}]: the viability at 10 µM with Jurkat T cells (setting [1]) is 100%.

Regarding `COc1ccc(-c2nc(N)nc(N3CCOCC3)n2)cc1` [9{5,9}], the viability at 10 µM with Jurkat T cells (setting [1]) was 100%. Turning to `Nc1nc(-c2ccccc2)nc(N2CCOCC2)n1` [9{5,1}], in the data set with Jurkat T cells (setting [1]), the viability at 10 µM is 98%. Regarding `CC1CCN(c2nc(N)nc(-c3ccccc3)n2)CC1` [9{3,1}], the viability at 10 µM with Jurkat T cells (setting [1]) was 100%. For the molecule `Cc1ccc(-c2nc(N)nc(N3CCCCC3)n2)cc1` [9{2,6}, 6-(4-Methylphenyl)-4-piperidino-1,3,5-triazine-2-amine], the viability at 10 µM with Jurkat T cells (setting [1]) stood at 100%. `Nc1nc(-c2ccccc2)nc(N2CCCCC2)n1` [9{2,1}]: the viability at 10 µM in the data set on Jurkat T cells (setting [1]) worked out at 100%.

These data come from article PMC10925993, “6-Aryl-4-cycloamino-1,3,5-triazine-2-amines: synthesis, antileukemic activity, and 3D-QSAR modelling” (RSC Advances, 2024).
